Data on 17 compounds can be found in ChEMBL document CHEMBL4400510, “Synthesis and antitubercular evaluation of reduced lipophilic imidazo[1,2-a]pyridine-3-carboxamide derivatives” (Eur J Med Chem, 2019).

The subject of data set [1] is Mycobacterium tuberculosis. Nature of the data set: Antitubercular activity against Mycobacterium tuberculosis H37Rv after 7 days by MABA method. It counts as functional. As to conditions: 168 h.
Data set [2] is described as follows: AUC (0 to infinity) in ICR mouse at 25 mg/kg, po by HPLC analysis. It counts as ADME, organism-based. Also noted: dose 25 mg/kg, route oral, time infinity. As to conditions: in vivo.
Data set [3] can be described thus: Cytotoxicity against African green monkey Vero cells measured after 72 hrs by MTT assay. The data set is classed as cell-based. As to conditions: chlorocebus sabaeus.
A short description of data set [4]: Cmax in ICR mouse at 25 mg/kg, po by HPLC analysis. Details: dose 25 mg/kg, route oral. As to conditions: in vivo. It counts as ADME, organism-based.
Data set [5] in a line: Tmax in ICR mouse at 25 mg/kg, po by HPLC analysis. The data set is classed as ADME, organism-based. As to conditions: in vivo.
Data set [6] can be described thus: Half life in ICR mouse at 25 mg/kg, po by HPLC analysis. It counts as ADME, organism-based. As to conditions: in vivo.
Data set [7] can be described thus: Aqueous solubility of the compound in 0.01 M HCl at pH 2 after 12 hrs by UV-based HPLC analysis. It counts as physicochemical.

Values after ≈ are worked out from the molar mass of the structure shown.

For `CCc1nc2ccc(Cl)cn2c1C(=O)NCc1ccc(N2CCN(Cc3ccc(OC(F)(F)F)cc3)CC2)cc1`, the MIC90 – broadly, an inhibitory concentration at the 90% level, which refers to growth in some studies and to a panel of isolates in others – in data set [1] is below 0.035 µM.
On to `CCc1nc2ccc(Cl)cn2c1C(=O)NCc1ccc(N2CC3CN(CC4CCCCC4)CC3C2)cc1` (configuration not stated), for which the AUC(0-inf) (commonly total exposure, with the tail of the curve extrapolated) in data set [2] was found to be 9050 ng·h/mL. Further, the CC50 – broadly, the concentration that lowers cell viability or growth by half – at 72 h in data set [3] is above 100 µM. Further, the Cmax (usually the maximum level reached in the sampled fluid or tissue) in data set [4] turned out to be 4180 ng/mL. The Tmax (in general, the time from dosing to the highest level) in data set [5] came to 15 min. For the same compound, the half-life (in general, the time in which the quantity being followed falls by half) in data set [6] was 256 min. The same compound showed an MIC90 in data set [1] below 0.035 µM. Moreover, the solubility (in general, the concentration that dissolves in the medium under given conditions) at 12 h in data set [7] is 628 µg/mL (≈ 1210 µM).
With `CCc1nc2ccc(Cl)cn2c1C(=O)NCc1ccc(N2CC3CN(c4ccc(OC(F)(F)F)cc4)CC3C2)cc1` (configuration not stated), the MIC90 in data set [1] amounted to 0.058 µM (≈ 0.0339 µg/mL).
Consider `CCc1nc2ccc(Cl)cn2c1C(=O)NCc1ccc(N2CC3CN(Cc4ccc(OC(F)(F)F)cc4)CC3C2)cc1` (configuration not stated), for which the AUC(0-inf) in data set [2] amounted to 19800 ng·h/mL. For the same compound, the CC50 at 72 h in data set [3] worked out at 20.5 µM. Moreover, in data set [4], the concentration peaked (Cmax) at 2670 ng/mL. Also, in data set [5], the Tmax came to 49.8 min. Besides, in data set [6], the half-life was 314 min. Further, in data set [1], the MIC90 is below 0.035 µM. For the same compound, the solubility at 12 h in data set [7] is 1130 µg/mL (≈ 1880 µM).
Consider `CCc1nc2ccc(Cl)cn2c1C(=O)NCc1ccc(N2CCC3(CC2)CCN(c2ccc(OC(F)(F)F)cc2)CC3)cc1`, for which the AUC(0-inf) in data set [2] came to 153000 ng·h/mL. In data set [3], this compound showed a CC50 at 72 h of 70.2 µM. The Cmax in data set [4] worked out at 7420 ng/mL. Further, the Tmax in data set [5] came out at 160 min. In addition, the half-life in data set [6] is 738 min. This compound also showed an MIC90 in data set [1] below 0.035 µM. Moreover, in data set [7], the solubility at 12 h worked out at 1110 µg/mL (≈ 1770 µM).
In turn, `CCc1nc2ccc(Cl)cn2c1C(=O)NCc1ccc(N2CC3CCC2CN3CC2CCCCC2)cc1` (configuration not stated) showed an MIC90 in data set [1] of 0.062 µM (≈ 0.0322 µg/mL).
The same measure, in the same setting: the value for `CCc1nc2ccc(Cl)cn2c1C(=O)NCc1ccc(N2CCN(CCC3CCCCC3)CC2)cc1` was 0.103 µM (≈ 0.0523 µg/mL).
`CCc1nc2ccc(Cl)cn2c1C(=O)NCc1ccc(N2CCN(CC3CCCCC3)CC2)cc1` yielded an AUC(0-inf) in data set [2] of 53800 ng·h/mL. Moreover, in data set [3], the CC50 at 72 h is 53.5 µM. Moreover, the Cmax in data set [4] is 24100 ng/mL. The time to peak (Tmax) in data set [5] amounted to 15 min. The half-life in data set [6] was 165 min. In addition, the MIC90 in data set [1] is below 0.035 µM. Moreover, the solubility at 12 h in data set [7] turned out to be 1230 µg/mL (≈ 2500 µM).
`CCc1nc2cc(Cl)ccn2c1C(=O)NCc1ccc(N2CC3CC2CN3CC2CCCCC2)cc1` (configuration not stated) returned an MIC90 in data set [1] of 1.27 µM (≈ 0.641 µg/mL).
On the same count and under the same terms, the value for `CCc1nc2cc(Cl)ccn2c1C(=O)NCc1ccc(N2CC3CCC2CN3CC2CCCCC2)cc1` (configuration not stated) was 1.48 µM (≈ 0.769 µg/mL); that for `CCc1nc2cc(Cl)ccn2c1C(=O)NCc1ccc(N2CCN(CCC3CCCCC3)CC2)cc1` was 1.59 µM (≈ 0.81 µg/mL); that for `CCc1nc2cc(Cl)ccn2c1C(=O)NCc1ccc(N2CCN(CC3CCCCC3)CC2)cc1` was 0.84 µM (≈ 0.415 µg/mL).
Same read-out and setting: next, `CCc1nc2ccc(Cl)cn2c1C(=O)NCc1ccc(N2CC3CC2CN3CC2CCCCC2)cc1` (configuration not stated): 0.452 µM (≈ 0.229 µg/mL); `NNC(=O)c1ccncc1` [ISONIAZID]: 0.277 µM (≈ 0.038 µg/mL).
Regarding `O=c1nc(N2CCN(CC3CCCCC3)CC2)sc2c([N+](=O)[O-])cc(C(F)(F)F)cc12` [MACOZINONE], the MIC90 in data set [1] is below 0.035 µM.
The same measure, in the same setting: next, `CO[C@H]1/C=C/O[C@@]2(C)Oc3c(C)c(O)c4c(O)c(c(/C=N/N5CCN(C)CC5)c(O)c4c3C2=O)NC(=O)/C(C)=C\C=C\[C@H](C)[C@H](O)[C@@H](C)[C@@H](O)[C@@H](C)[C@H](OC(C)=O)[C@@H]1C` [RIFAMPIN]: 0.038 µM (≈ 0.0313 µg/mL).
The compound `CCc1nc2ccc(Cl)cn2c1C(=O)NCc1ccc(N2CCC(c3ccc(OC(F)(F)F)cc3)CC2)cc1` [TELACEBEC] yielded a CC50 at 72 h in data set [3] above 100 µM. Besides, the MIC90 in data set [1] was below 0.035 µM.
